Values quoted from earlier work, collected in patent publication US20050222211A1, “S(-)rabeprazole compositions and methods” (Sepracor Inc., priority 1998, published 2005).

Columns and labels:
[1] = system: CYP 1A1 mRNA; conditions: compared with pantoprazole
[2] = system: CYP 3A; conditions: compared with omeprazole
[3] = target: CYP 2C19 (Homo sapiens, UniProt P33261); conditions: compared with omeprazole
[4] = system: gastric acid secretion; conditions: humans
[5] = humans; depending on dose

CYP 2C19, sequence (P33261 whole entry, species assumed): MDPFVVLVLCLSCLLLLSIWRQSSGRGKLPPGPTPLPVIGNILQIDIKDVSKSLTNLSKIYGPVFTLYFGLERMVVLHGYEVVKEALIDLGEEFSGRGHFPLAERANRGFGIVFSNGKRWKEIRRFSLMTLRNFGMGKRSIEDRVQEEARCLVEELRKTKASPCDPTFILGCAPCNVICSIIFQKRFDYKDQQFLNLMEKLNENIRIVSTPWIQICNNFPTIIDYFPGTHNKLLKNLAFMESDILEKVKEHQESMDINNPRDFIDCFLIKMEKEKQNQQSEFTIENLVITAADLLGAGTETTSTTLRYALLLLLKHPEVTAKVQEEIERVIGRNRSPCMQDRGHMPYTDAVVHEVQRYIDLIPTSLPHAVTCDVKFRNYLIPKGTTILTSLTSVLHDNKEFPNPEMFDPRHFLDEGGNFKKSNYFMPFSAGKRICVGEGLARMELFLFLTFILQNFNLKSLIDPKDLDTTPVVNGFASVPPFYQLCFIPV

COCCCOc1ccnc(C[S+]([O-])c2nc3ccccc3[nH]2)c1C (racemic) [racemic rabeprazole]
induction of CYP 1A1 mRNA [1]: more potent inducer of CYP 1A1 mRNA than is pantoprazole | effects on hepatic drug metabolizing enzyme systems such as CYP 3A [2]: comparable to omeprazole | inhibition of CYP 2C19 [3]: less inhibitory of CYP 2C19 than is omeprazole | duration of the acid inhibitory effect [4]: about 24 hours | serum half-life [5]: 0.833 to 1.5 h
